These results are taken from patent US5602153A, “Method of using 1-arylheteroarylalkyl substituted-1H-1,2,4-triazole compounds for treatment of a giaucoma disorder” (G.D. Searle & Co., priority 1993, dated 1997).

Like-named read-outs stand apart in the source and are kept apart here.

In one experiment the test system is angiotensin II receptor. The following applies: cited from earlier work; for angiotensin II antagonist activity: binding experiments, functional assays and in vitro / in vivo tests.
For the next experiment, the target named is T1, rabbit aortic rings (Oryctolagus cuniculus, UniProt P34976).
T1 construct: The thoracic aorta was removed, cleaned of adherent fat and connective tissue; from tissue; host or cells: thoracic aorta rings, endothelium removed, male New Zealand white rabbit
T1 sequence (P34976 1-359): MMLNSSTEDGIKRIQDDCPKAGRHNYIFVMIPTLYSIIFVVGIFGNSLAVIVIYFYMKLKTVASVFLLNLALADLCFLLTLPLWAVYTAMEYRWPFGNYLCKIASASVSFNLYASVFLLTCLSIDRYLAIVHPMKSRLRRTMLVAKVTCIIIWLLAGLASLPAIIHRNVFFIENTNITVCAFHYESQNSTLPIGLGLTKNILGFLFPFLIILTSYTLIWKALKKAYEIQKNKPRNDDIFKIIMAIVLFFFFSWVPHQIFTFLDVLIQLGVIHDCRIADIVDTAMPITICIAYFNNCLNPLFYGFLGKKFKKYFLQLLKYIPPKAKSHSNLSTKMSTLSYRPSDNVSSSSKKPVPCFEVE
As to the kind of experiment: Assay B: In Vitro Vascular Smooth Muscle-Response for AII (antagonist activity in rabbit aortic rings). The format is cell-based, rabbit (male New Zealand white). The conditions noted are these: antagonist 10^-5 M for 5 min, AII challenge. Here is the method:
Assay B: In Vitro Vascular Smooth Muscle-Response for AII The compounds of the invention were tested for antagonist activity in rabbit aortic rings. Male New Zealand white rabbits (2-2.5 kg) were sacrificed using an overdose of pentobarbital and exsanguinated via the carotid arteries. The thoracic aorta was removed, cleaned of adherent fat and connective tissue and then cut into 3-mm ring segments. The endothelium was removed from the rings by gently sliding a rolled-up piece of filter paper into the vessel lumen. The rings were then mounted in a water-jacketed tissue bath, maintained at 37° C., between moveable and fixed ends of a stainless steel wire with the moveable end attached to an FT03 Grass transducer coupled to a Model 7D Grass Polygraph for recording isometric force responses. The bath was filled with 20 ml of oxygenated (95% oxygen/5% carbon dioxide) Krebs solution of the following composition (mM): 130 NaCl, 15 NaHCO3, 15 KCl, 1.2 NaH2 PO4, 1.2 MgSO4, 2.5 CaCl2, and 11.4 glucose. The preparations were equilibrated for one hour before approximately one gram of passive tension was placed on the rings. Angiotensin II concentration-response curves were then recorded (3×10^-10 to 1×10^-5 M). Each concentration of AII was allowed to elicit its maximal contraction, and then AII was washed out repeatedly for 30 minutes before rechallenging with a higher concentration of AII. Aorta rings were exposed to the test antagonist at 10^-5 M for 5 minutes before challenging with AII. Adjacent segments of the same aorta ring were used for all concentration-response curves in the presence or absence of the test antagonist. The effectiveness of the test compound was expressed in terms of pA2 values and were calculated according to H.O. Schild [Br. J. Pharmacol. Chemother., 2, 189-206 (1947)]. The pA2 value is the concentration of the antagonist which increases the EC50 value for AII by a factor of two. Each test antagonist was evaluated in aorta rings from two rabbits.

The subject of the next experiment is pressor response to AII. Put plainly: Assay C: In Vivo Intragastric Pressor Assay Response for AII Antagonists. More on the design: species or system rat (male Sprague-Dawley). The following applies: 3 mg/kg i.g., rat, AII 30 ng/kg bolus; for inhibition in vivo at 3 mg/kg: po. The procedure:
Assay C: In Vivo Intragastric Pressor Assay Response for AII Antagonists of the Invention
Male Sprague-Dawley rats weighing 225-300 grams were anesthetized with methohexital (30 mg/kg, i.p.) and catheters were implanted into the femoral artery and vein. The catheters were tunneled subcutaneously to exit dorsally, posterior to the head and between the scapulae. The catheters were filled with heparin (1000 units/ml of saline). The rats were returned to their cage and allowed regular rat chow and water ad libitum. After full recovery from surgery (3-4 days), rats were placed in Lucite holders and the arterial line was connected to a pressure transducer. Arterial pressure was recorded on a Gould polygraph (mmHg). Angiotensin II was administered as a 30 ng/kg bolus via the venous catheter delivered in a 50 μl volume with a 0.2 ml saline flush. The pressor response in mmHg was measured by the difference from pre-injectionarterial pressure to the maximum pressure achieved. The AII injection was repeated every 10 minutes until three consecutive injections yielded responses within 4 mmHg of each other. These three responses were then averaged and represented the control response to AII. The test compound was suspended in 0.5% methylcellulose in water and was administered by gavage. The volume administered was 2 ml/kg body weight. The standard dose was 3 mg/kg. Angiotensin II bolus injections were given at 30, 45, 60, 75, 120, 150, and 180 minutes after gavage. The pressor response to AII was measured at each time point. The rats were then returned to their cage for future testing. A minimum of 3 days was allowed between tests. Percent inhibition was calculated for each time point following gavage by the following formula: [(Control Response-Response at time point)/Control Response]×100.

Experiment [1] has as its target smooth muscle angiotensin II receptor. As to the kind of experiment: Assay A: Angiotensin II Binding Activity (displacement of 125I-AII, rat uterine membrane preparation). The conditions noted are these: rat uterine membranes, 25 °C, 60 min; read-out: IC50 (50% displacement of total specifically bound 125I-AII). The procedure:
Assay A: Anaiotensin II Binding Activity
Compounds of the invention were tested for ability to bind to the smooth muscle angiotensin II receptor using a rat uterine membrane preparation. Angiotensin II (AII) was purchased from Peninsula Labs. ^125 I-angiotensin II (specific activity of 2200 Ci/mmol) was purchased from Du Pont-New England Nuclear. Other chemicals were obtained from Sigma Chemical Co. This assay was carried out according to the method of Douglas et al [Endocrinology, 106, 120-124 (1980)]. Rat uterine membranes were prepared from fresh tissue. All procedures were carried out at 4° C. Uteri were stripped of fat and homogenized in phosphate-buffered saline at pH 7.4 containing 5 mM EDTA. The homogenate was centrifuged at 1500×g for 20 min., and the supernatant was recentrifuged at 100,000×g for 60 min. The pellet was resuspended in buffer consisting of 2 mM EDTA and 50 mM Tris-HCl (pH 7.5) to a final protein concentration of 4 mg/ml. Assay tubes were charged with 0.25 ml of a solution containing 5 mM MgCl2, 2 mM EDTA, 0.5% bovine serum albumin, 50 mM Tris-HCl, pH 7.5 and ^125 I-AII (approximately 10^5 cpm) in the absence or in the presence of unlabelled ligand. The reaction was initiated by the addition of membrane protein and the mixture was incubated at 25° C. for 60 min. The incubation was terminated with ice-cold 50 mM Tris-HDl (pH 7.5) and the mixture was filtered to separate membrane-bound labelled peptide from the free ligand. The incubation tube and filter were washed with ice-cold buffer. Filters were assayed for radioactivity in a Micromedic gamma counter. Nonspecific binding was defined as binding in the presence of 10 μM of unlabelled AII. Specific binding was calculated as total binding minus nonspecific binding. The receptor binding affinity of an AII antagonist compound was indicated by the concentration (IC50) of the tested AII antagonist which gives 50% displacement of the total specifically bound ^125 I-AII from the high affinity AII receptor. Binding data were analyzed by a nonlinear least-squares curve fitting program.
(In general: In a radioligand displacement assay an active substance lowers the binding of a labelled ligand.)

Where [2] appears, read: first of two rabbits, read-out: pA2 (first value) (converted).
The mark [3] stands for this setting: second of two rabbits, read-out: pA2 (converted).

Turning to `CCCCc1nc(Cl)c(CC(=O)O)n1Cc1ccccc1[N+](=O)[O-]` [2-butyl-4-chloro-1-(2-nitrobenzyl)imidazole-5-acetic acid], the “angiotensin II antagonist activity” value with angiotensin II receptor was “specific competitive angiotensin II antagonist activity”.
As to `CCCCc1nc(Cl)c(CC(=O)O)n1Cc1ccccc1Cl` [2-n-butyl-4-chloro-1-(2-chlorobenzyl)imidazole-5-acetic acid], the “angiotensin II antagonist activity” value in the experiment on angiotensin II receptor is recorded as “specific competitive angiotensin II antagonist activity”.
For `CCCCc1nc(C(F)(F)CCC)nn1Cc1ccc(-c2ccccc2-c2nnn[nH]2)nc1` [Example 9, 5-[2-[5-[[3-(1,1-difluorobutyl)-5-butyl-1H-1,2,4-triazol-1-yl)methyl]-2-pyridinyl]phenyl]-1H-tetrazole], the Kb at rabbit aortic rings (setting [2]) is 5.5 nM. Further, at rabbit aortic rings (setting [3]), the Kb was 3.89 nM. Moreover, in the experiment on pressor response to AII, the “Duration (of inhibition of AII pressor response)” value was determined as 180 min and the inhibition in vivo at 3 mg/kg was 20%. Besides, in experiment [1], the IC50 came out at 9.4 nM.
For the compound `CCCCc1nc(C(F)(F)CCC)n(Cc2ccc(-c3ccccc3-c3nnn[nH]3)nc2)n1` [Example 10, 5-[2-[5-[[3-butyl-5-(1,1-difluorobutyl)-1H-1,2,4-triazol-1-yl)methyl]-2-pyridinyl]phenyl]-1H-tetrazole], the Kb is 20.9 nM on rabbit aortic rings (setting [2]) and 31.6 nM on rabbit aortic rings (setting [3]). In addition, at 3 mg/kg the inhibition in vivo with pressor response to AII was 10%. In addition, the IC50 in experiment [1] was 20 nM.
As for `CCCCc1nc(CC(C)(C)C)nn1Cc1ccc(-c2ccccc2-c2nnn[nH]2)nc1` [Example 11, 5-[2-[5-[[3-neopentyl-5-butyl-1H-1,2,4-triazol-1-yl)methyl]-2-pyridinyl]phenyl]-1H-tetrazole], in the experiment with pressor response to AII, the “Duration (of inhibition of AII pressor response)” value is above 180 min and the inhibition in vivo at 3 mg/kg amounted to 20%. Moreover, the IC50 in experiment [1] is 4.4 nM.
In the experiment on pressor response to AII, `CCCCc1nc(CC(C)(C)C)n(Cc2ccc(-c3ccccc3-c3nnn[nH]3)nc2)n1` [Example 12, 5-[2-[5-[(3-butyl-5-neopentyl-1H-1,2,4-triazol-1-yl)methyl]-2-pyridinyl]phenyl]-1H-tetrazole] had an inhibition in vivo at 3 mg/kg of 0%. For the same compound, in experiment [1], the IC50 came out at 43 nM.
Turning to `CCCCc1nc(C(=O)N(C)C(C)(C)C)nn1Cc1ccc(-c2ccccc2-c2nnn[nH]2)nc1` [Example 17, 5-[2-[5-[[3-(N-methyl-N-tertbutylamido)-5-butyl-1H-1,2,4-triazol-1-yl)methyl]-2-pyridinyl]phenyl]-1H-tetrazole], the Kb at rabbit aortic rings (setting [2]) was 24.5 nM. Moreover, the Kb at rabbit aortic rings (setting [3]) was 34.7 nM. Moreover, in the experiment on pressor response to AII, the “Duration (of inhibition of AII pressor response)” value was above 180 min and testing at 3 mg/kg gave an inhibition in vivo of 20%. Besides, in experiment [1], the IC50 is 12 nM.
The matching figures for `CCCCc1nc(C(=O)N(C)C(C)(C)C)n(Cc2ccc(-c3ccccc3-c3nnn[nH]3)nc2)n1` [Example 18, 5-[2-[5-[[3-butyl-5-(N-methyl-N-tertbutylamido)-1H-1,2,4-triazol-1-yl)methyl]-2-pyridinyl]phenyl]-1H-tetrazole]: 3.72 nM, 16.6 nM, above 180 min, 30% and 4.1 nM.
As for `CCCCc1nc(-c2ccccc2Cl)nn1Cc1ccc(-c2ccccc2-c2nnn[nH]2)nc1` [Example 29, 5-[2-[5-[[3-(2-chlorophenyl)-5-butyl-1H-1,2,4-triazol-1-yl)methyl]-2-pyridinyl]phenyl]-1H-tetrazole], in the experiment with pressor response to AII, the “Duration (of inhibition of AII pressor response)” value is above 180 min and the inhibition in vivo at 3 mg/kg came to 25%. Also, the IC50 in experiment [1] amounted to 25 nM.
Compound `CCCCc1nc(-c2ccccc2Cl)n(Cc2ccc(-c3ccccc3-c3nnn[nH]3)nc2)n1` [Example 30, 5-[2-[5-[[3-butyl-5-(2-chlorophenyl)-1H-1,2,4-triazol-1-yl)methyl]-2-pyridinyl]phenyl]-1H-tetrazole] displayed an inhibition in vivo at 3 mg/kg in the experiment with pressor response to AII of 0%. The IC50 in experiment [1] stood at 520 nM.
As to `CNCC(=O)N[C@@H](CCCN=C(N)N)C(=O)N[C@H](C(=O)N[C@@H](Cc1ccc(O)cc1)C(=O)N[C@H](C(=O)N[C@@H](Cc1cnc[nH]1)C(=O)N1CCC[C@H]1C(=O)N[C@@H](C)C(=O)O)C(C)C)C(C)C` [Saralasin], the residual agonist activity entry in the experiment with angiotensin II receptor is reported as “significant residual agonist activity”.

A word on the inhibition in vivo: it is how much of the control response was suppressed. By IC50 is commonly meant the concentration that inhibits the measured activity by half.
